Test results taken from US8691761B2, “Somatostatin receptor 2 antagonists” (priority 2006, dated 2014).
Where two headings read alike, the source gives them in different places.

What was measured:
hSSTR2 = target: T1, hSSTR2 (Homo sapiens, UniProt P30874); assay: Receptor autoradiography, displacement of 125I-[Leu8,D-Trp22,Tyr25]-SRIF-28 from membrane pellet sections; assay type: binding
T1 construct: expressed in transfected cells; host or cells: CHO-K1 or CCL39 cells
Method: (§1) Generally, recombinant cells expressing the receptor are washed and homogenized to prepare a crude protein homogenate in a suitable buffer. In a typical assay, an amount of protein from the cell homogenate is placed into a small volume of an appropriate assay buffer at an appropriate pH. Candidate substances, such as potential SRIF agonists and antagonists, are added to the admixture in convenient concentrations, and the interaction between the candidate substance and the receptor polypeptide is monitored.
(§2) In vitro Bioassay: The effects of the various somatostatin analogs were tested in vitro for their ability to bind to isolated cloned receptors expressed on CHO-K1 cells and CCL39 cells. The molecular cloning of the genes encoding multiple somatostatin receptor subtypes permitted the individual expression of these receptors in mammalian cells and the characterization of their respective pharmacological profiles.
(§3) CHO-K1 cells were grown in Ham's F-12 medium, and CCL39 cells were grown in Dulbecco's modified Eagle's medium/Ham's F-12(1:1) mix, supplemented with 10% fetal bovine serum, 100 U/ml penicillin and 100 μg/ml streptomycin, in humidified air containing 5% CO2 at 37° C. Cells were washed twice with and scraped into ice-cold 0.05 M Tris-HCl (pH 7.4), collected by centrifugation, and homogenized using a rotor/stator/system in the same buffer. After centrifugation at 120 g for 5 min at 4° C., the supernatant was collected and centrifuged again at 48,000 g for 30 min at 4° C. The resulting pellet was resuspended in ice-cold Tris buffer, transferred into a microfuge tube, and centrifuged at 20,000 g for 15 min at 4° C. After withdrawal of the supernatant, the membrane pellet was stored at −80° C.
(§4) Receptor autoradiography was performed on 20 μm thick cryostat sections of the membrane pellets, mounted on microscope slides, and then stored at −20° C. […] Increasing concentrations of the unlabeled peptide were used ranging from 0.1-1000 nM. […] IC50 values were calculated after quantification of the data using a computer-assisted image processing system as known in this art.
(§5) The numbers in parentheses indicate the number of times the particular binding test was carried out.
(§6) Receptor autoradiography. Cell membrane pellets were prepared as previously described, and stored at −80° C. Receptor autoradiography was performed on 20-μm thick cryostat (Microm HM 500, Walldorf, Germany) sections of the membrane pellets, mounted on microscope slides, and then stored at −20° C. […] After a brief dip in distilled water to remove excess salts, the sections were dried quickly and exposed for 1 week to Kodak BioMax MR film. IC50 values were calculated after quantification of the data using a computer-assisted image processing system as described previously. […] (Reubi, J. C. “In vitro identification of vasoactive intestinal peptide receptors in human tumors: Implications for tumor imaging.” J. Nucl. Med. 1995, 36, 1846-1853).
(§7) To investigate their ssts binding properties, the peptides were tested for their ability to bind to cryostat sections from membrane pellets of cells expressing the five human ssts (Table 3).

human sst2A receptor = target: T2, human sst2A receptor (Homo sapiens, UniProt P30874); assay: Immunofluorescence-based sst2 internalization assay in HEK-sst2 cells; assay type: cell-based; details: for sst2-internalization tested in vitro in HEK-sst2 cells (function): n ≧ 2
T2 construct: expressed in transfected cells; host or cells: HEK293 (HEK-sst2)
Method: Immunofluorescence-based sst2 Internalization Assay. Immunofluorescence microscopy-based internalization assay for sst2 was performed with HEK-sst2 using the sst2-specific antibody R2-88 as described elsewhere herein. HEK-sst2 cells were treated either with vehicle alone, the sst2 agonist [Tyr^3]-octreotide at a concentration of 100 nM, [Tyr^3]-octreotide at a concentration of 100 nM in the presence of an excess of the SRIF analogues to be tested (100 times the concentration of [Tyr^3]-octreotide), or with the SRIF analogues to be tested alone at a concentration of 10 μM, and then processed for immunofluorescence microscopy as described previously.

sst2 = sst2 (Homo sapiens, UniProt P30874); assay: Calcium release assay in HEK-sst2 cells (Fluo-4NW); assay type: cell-based; design: expressed in transfected cells; host or cells: HEK293 (HEK-sst2); details: n ≧ 2
Method: Calcium release assay. Intracellular calcium release was measured in HEK-sst2 using the Fluo-4NW Calcium Assay kit as described previously (Magrys, et al. “The role of anti-alpha-enolase autoantibodies in pathogenicity of autoimmune-mediated retinopathy.” J. Clin. Immunol. 2007, 27, 181-192; Michel et al. “The Nef protein of human immunodeficiency virus is a broad-spectrum modulator of chemokine receptor cell surface levels that acts independently of classical motifs for receptor endocytosis and Galphai signaling.” Mol. Biol. Cell. 2006, 17, 3578-3590). In brief, HEK-sst2 cells were seeded (25,000 cells per well) in poly-D-lysine (20 μg/mL) coated 96 well plates and cultured for 1 day at 37° C. and 5% CO2 in culture medium. At the day of the experiment, the cells were washed with assay buffer (1×HBSS, 20 mM HEPES) containing 2.5 mM probenecid, and then loaded with 100 μL/well Fluo-4NW dye in assay buffer containing 2.5 mM probenecid for 30 min at 37° C. and 5% CO2 and then for further 30 min at room temperature. To measure the intracellular calcium mobilization after stimulation with the SRIF analogues to be tested, the dye-loaded cells were transferred to a SpectraMax M2^e (Molecular Devices, Sunnyvale, Calif.). Intracellular calcium mobilization was recorded in a kinetic for 60 sec at room temperature monitoring fluorescence emission at 520 nm (with λex=485 nm) in the presence of the analogues at the concentrations indicated. Maximum fluorescence (Fmax) was measured after the addition of 25 μM ionomycin. Baseline (control) measurements were taken for dye-loaded, untreated cells. Data are shown as percentage of Fmax (% Fmax) as reported previously. (Magrys, et al. J. Clin. Immunol. 2007, 27, 181-192; Michel et al. Mol. Biol. Cell. 2006, 17, 3578-3590). All experiments were repeated at least three times in triplicate.

hSSTR5 = target: T3, hSSTR5 (Homo sapiens, UniProt P35346); assay: Receptor autoradiography, displacement of 125I-[Leu8,D-Trp22,Tyr25]-SRIF-28 from membrane pellet sections; assay type: binding
T3 construct: expressed in transfected cells; host or cells: CHO-K1 or CCL39 cells
Method: as §1, §2, §3, §4, §5, §6, §7

hSSTR3 = target: T4, hSSTR3 (Homo sapiens, UniProt P32745); assay: as above; assay type: binding
T4 construct: expressed in transfected cells; host or cells: CHO-K1 or CCL39 cells
Method: as §1, §2, §3, §4, §5, §6, §7

hSSTR1 = target: T5, hSSTR1 (Homo sapiens, UniProt P30872); assay: as above; assay type: binding
T5 construct: expressed in transfected cells; host or cells: CHO-K1 or CCL39 cells
Method: as §1, §2, §3, §4, §5, §6, §7

hSSTR4 = target: T6, hSSTR4 (Homo sapiens, UniProt P31391); assay: as above; assay type: binding
T6 construct: expressed in transfected cells; host or cells: CHO-K1 or CCL39 cells
Method: as §1, §2, §3, §4, §5, §6, §7

[1] = Table 3, mean ± SEM when N ≧ 3, read-out: sst5 binding affinity (IC50)
[2] = Table 3, mean ± SEM when N ≧ 3, read-out: sst3 binding affinity (IC50)
[3] = Table 3, mean ± SEM when N ≧ 3, read-out: sst2 binding affinity (IC50)
[4] = Table 3, mean ± SEM when N ≧ 3, read-out: sst1 binding affinity (IC50)
[5] = Table 3, mean ± SEM when N ≧ 3, read-out: sst4 binding affinity (IC50)

T5 sequence (P30872 whole entry): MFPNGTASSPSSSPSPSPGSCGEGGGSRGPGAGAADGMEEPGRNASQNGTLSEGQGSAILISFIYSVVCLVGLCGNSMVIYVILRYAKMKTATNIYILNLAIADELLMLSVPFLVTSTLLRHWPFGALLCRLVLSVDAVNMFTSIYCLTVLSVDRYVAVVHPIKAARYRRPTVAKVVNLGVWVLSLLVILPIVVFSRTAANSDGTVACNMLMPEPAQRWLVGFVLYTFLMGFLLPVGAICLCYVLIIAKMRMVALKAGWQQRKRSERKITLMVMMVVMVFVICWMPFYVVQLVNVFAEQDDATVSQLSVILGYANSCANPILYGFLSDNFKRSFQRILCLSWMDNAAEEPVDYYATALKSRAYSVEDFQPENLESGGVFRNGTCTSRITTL
T3 sequence (P35346 whole entry): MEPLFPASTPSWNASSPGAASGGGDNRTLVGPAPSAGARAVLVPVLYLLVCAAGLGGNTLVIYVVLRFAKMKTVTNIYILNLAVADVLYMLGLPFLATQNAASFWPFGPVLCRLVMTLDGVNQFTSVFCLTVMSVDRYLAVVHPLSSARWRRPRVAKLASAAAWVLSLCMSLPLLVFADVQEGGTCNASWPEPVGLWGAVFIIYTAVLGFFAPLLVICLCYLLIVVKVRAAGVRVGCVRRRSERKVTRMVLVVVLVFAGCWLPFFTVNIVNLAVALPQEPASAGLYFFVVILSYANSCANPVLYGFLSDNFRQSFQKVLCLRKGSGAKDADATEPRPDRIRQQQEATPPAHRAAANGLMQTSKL
T4 sequence (P32745 whole entry): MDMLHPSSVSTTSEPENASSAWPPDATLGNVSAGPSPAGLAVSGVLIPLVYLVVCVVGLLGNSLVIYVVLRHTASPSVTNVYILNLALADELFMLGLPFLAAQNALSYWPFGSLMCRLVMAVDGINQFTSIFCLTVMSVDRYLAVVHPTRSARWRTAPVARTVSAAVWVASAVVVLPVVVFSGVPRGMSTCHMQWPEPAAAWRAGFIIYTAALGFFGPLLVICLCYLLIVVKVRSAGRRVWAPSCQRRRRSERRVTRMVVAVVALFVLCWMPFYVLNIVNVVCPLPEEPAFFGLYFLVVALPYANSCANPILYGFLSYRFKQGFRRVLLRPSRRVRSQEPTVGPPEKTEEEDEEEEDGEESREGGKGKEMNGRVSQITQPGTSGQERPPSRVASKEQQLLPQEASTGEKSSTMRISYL
T6 sequence (P31391 whole entry): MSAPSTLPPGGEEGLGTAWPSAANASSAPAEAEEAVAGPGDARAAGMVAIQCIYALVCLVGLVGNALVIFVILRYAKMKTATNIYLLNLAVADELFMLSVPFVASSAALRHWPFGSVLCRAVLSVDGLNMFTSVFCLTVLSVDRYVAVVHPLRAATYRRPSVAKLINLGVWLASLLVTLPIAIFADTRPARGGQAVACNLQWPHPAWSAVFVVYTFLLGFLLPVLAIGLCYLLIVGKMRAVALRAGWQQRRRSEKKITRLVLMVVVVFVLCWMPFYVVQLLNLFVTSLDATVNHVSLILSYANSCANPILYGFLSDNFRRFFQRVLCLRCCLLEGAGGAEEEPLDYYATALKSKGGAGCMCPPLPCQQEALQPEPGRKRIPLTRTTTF
T2 sequence (P30874 whole entry): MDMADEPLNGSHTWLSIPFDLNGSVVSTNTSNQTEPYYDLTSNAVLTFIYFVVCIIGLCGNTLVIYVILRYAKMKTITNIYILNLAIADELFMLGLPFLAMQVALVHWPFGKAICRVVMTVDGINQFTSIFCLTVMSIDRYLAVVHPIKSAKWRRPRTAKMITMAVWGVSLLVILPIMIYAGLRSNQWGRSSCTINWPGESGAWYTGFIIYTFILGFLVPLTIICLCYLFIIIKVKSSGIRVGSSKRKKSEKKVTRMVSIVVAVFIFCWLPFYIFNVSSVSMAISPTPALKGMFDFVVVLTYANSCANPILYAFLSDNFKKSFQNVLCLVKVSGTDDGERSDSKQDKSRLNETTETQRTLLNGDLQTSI
Chain of sst2 (P30874 whole entry): as above
T1 sequence (P30874 whole entry): as above

| Molecule | loss of binding affinity for sst2 as compared to 7 (hSSTR2) [fold] | sst2-internalization tested in vitro in HEK-sst2 cells (function) (human sst2A receptor) | Calcium release tested in vitro in HEK-sst2 cells (function) (sst2) | IC50 (hSSTR5; Table 1, inhibition of radioligand binding to cloned human receptor, read-out: IC50 hSSTR5) [µM] | IC50 (hSSTR5; [1]) [µM] | IC50 (hSSTR3; Table 1, inhibition of radioligand binding to cloned human receptor, read-out: IC50 hSSTR3) [µM] | IC50 (hSSTR3; [2]) [µM] | IC50 (hSSTR2; Table 1, inhibition of radioligand binding to cloned human receptor, read-out: IC50 hSSTR2) [µM] | IC50 (hSSTR2; [3]) [µM] | IC50 (hSSTR1; Table 1, inhibition of radioligand binding to cloned human receptor, read-out: IC50 hSSTR1) [µM] | IC50 (hSSTR1; [4]) [µM] | IC50 (hSSTR4; Table 1, inhibition of radioligand binding to cloned human receptor, read-out: IC50 hSSTR4) [µM] | IC50 (hSSTR4; [5]) [µM] | sst2 internalization, given alone (human sst2A receptor; FIG. 2, antagonists at 10 μM) |
| --- | --- | --- | --- | --- | --- | --- | --- | --- | --- | --- | --- | --- | --- | --- |
| C[C@@H](O)[C@@H]1NC(=O)[C@H](CCCCN)NC(=O)[C@@H](Cc2c[nH]c3ccccc23)NC(=O)[C@H](N(C)C(=O)c2ccccc2)NC(=O)[C@H](NC(=O)[C@@H](N)Cc2ccc(Cl)cc2)CSSC[C@@H](C(=O)N[C@@H](Cc2ccc3ccccc3c2)C(N)=O)NC1=O [compound 9, H2N-Cpa-c[DCys-L-Agl(NMe.benzoyl)-DTrp-Lys-Thr-Cys]-2Nal-NH2] | 3 | Antagonist | – | – | – | – | – | – | – | – | – | – | – | – |
| C[C@@H](O)[C@@H]1NC(=O)[C@H](CCCCN)NC(=O)[C@@H](Cc2c[nH]c3ccccc23)NC(=O)[C@H](Cc2ccc(NC(N)=O)cc2)NC(=O)[C@H](NC(=O)[C@H](Cc2ccc(Cl)cc2)NC(=O)CN2CCN(CC(=O)O)CCN(CC(=O)O)CCN(CC(=O)O)CC2)CSSC[C@@H](C(=O)N[C@@H](Cc2ccc3ccccc3c2)C(N)=O)NC1=O [Peptide No. 14, DOTA-Cpa-c[DCys-Aph(Cbm)-DTrp-Lys-Thr-Cys]-2Nal-NH2] | – | Antagonist | Antagonist | > 1 | > 1 | > 1 | 0.972 ± 0.212 | 0.0094 ± 0.0016 | 0.0098 ± 0.0012 | > 1 | > 1 | 0.816 ± 0.114 | 0.831 ± 0.082 | – |
| C[C@@H](O)[C@@H]1NC(=O)[C@H](CCCCN)NC(=O)[C@@H](Cc2c[nH]c3ccccc23)NC(=O)[C@H](Cc2ccc(O)cc2)NC(=O)[C@H](NC(=O)[C@H](Cc2ccc([N+](=O)[O-])cc2)NC(=O)CN2CCN(CC(=O)O)CCN(CC(=O)O)CCN(CC(=O)O)CC2)CSSC[C@@H](C(=O)N[C@H](Cc2ccc(O)cc2)C(N)=O)NC1=O [compound 2, DOTA-pNO2Phe-c[DCys-Tyr-DTrp-Lys-Thr-Cys]-DTyr-NH2] | – | Antagonist | Antagonist | – | > 1 | – | > 1 | – | 0.0015 | – | > 1 | – | 0.287 ± 0.027 | – |
| [Tyr^3]-octreotide [reference compound] | – | – | agonistic effect | – | – | – | – | – | – | – | – | – | – | can induce sst2 internalization |
